According to PMC5933782, “Molecular structures of cdc2-like kinases in complex with a new inhibitor chemotype” (PLoS ONE, 2018):
Counter-ions that a name gives are not always drawn.

What was measured:
DYRK1B = DYRK1B (Homo sapiens, UniProt Q9Y463); experiment: radiometric protein kinase assay; type: biochemical; conditions: for IC50: 15 μmol/L ATP, read-out: IC50 DYRK 1B; for Residual enzyme activity DYRK 1B: 10 µM concentration, ± SEM
CDK2/cyclin A = target: T1, CDK2/cyclin A (Homo sapiens, UniProt P24941); experiment: radiometric protein kinase assay; type: biochemical; conditions: for IC50: 15 μmol/L ATP, read-out: IC50 CDK2/cyclinA; for Residual enzyme activity CDK2/cyclin A: 10 µM concentration, ± SEM
T1 construct: made in house

GSK-3 = experiment: radiometric protein kinase assay; type: biochemical, porcine; conditions: for IC50: 15 μmol/L ATP, read-out: IC50 GSK3; for Residual enzyme activity GSK3: 10 µM concentration, ± SEM
DYRK3 = target: T2, DYRK3 (Homo sapiens, UniProt O43781); experiment: radiometric protein kinase assay; type: biochemical; conditions: for IC50: 15 μmol/L ATP, read-out: IC50 DYRK 3; for Residual enzyme activity DYRK 3: 10 µM concentration, ± SEM
T2 sequence (O43781 1-588): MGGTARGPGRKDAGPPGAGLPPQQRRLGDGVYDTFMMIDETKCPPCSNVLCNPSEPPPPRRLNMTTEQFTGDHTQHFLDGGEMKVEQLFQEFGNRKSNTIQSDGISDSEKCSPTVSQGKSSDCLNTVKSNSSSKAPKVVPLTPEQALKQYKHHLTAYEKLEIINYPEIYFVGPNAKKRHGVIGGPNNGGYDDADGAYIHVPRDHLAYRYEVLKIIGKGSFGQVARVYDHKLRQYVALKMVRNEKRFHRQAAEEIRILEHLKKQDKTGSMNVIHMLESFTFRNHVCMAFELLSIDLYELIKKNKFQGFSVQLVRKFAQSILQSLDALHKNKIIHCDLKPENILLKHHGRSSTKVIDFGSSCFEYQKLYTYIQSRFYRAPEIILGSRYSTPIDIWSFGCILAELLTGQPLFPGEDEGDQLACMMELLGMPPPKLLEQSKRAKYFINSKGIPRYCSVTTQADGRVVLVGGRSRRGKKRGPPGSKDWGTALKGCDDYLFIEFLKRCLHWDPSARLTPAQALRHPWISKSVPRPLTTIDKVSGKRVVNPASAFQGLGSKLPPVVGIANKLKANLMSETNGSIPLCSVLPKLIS

DYRK1A = DYRK1A (Homo sapiens, UniProt Q13627); experiment: radiometric protein kinase assay; type: biochemical; conditions: for IC50: 15 μmol/L ATP, read-out: IC50 DYRK 1A; for Residual enzyme activity DYRK 1A: 10 µM concentration, ± SEM
CK1δ/ε = experiment: radiometric protein kinase assay; type: biochemical, porcine; conditions: for IC50: 15 μmol/L ATP, read-out: IC50 CK1; for Residual enzyme activity CK1: 10 µM concentration, ± SEM
CLK4 = CLK4 (Mus musculus, UniProt O35493); experiment: radiometric protein kinase assay; conditions: for Residual enzyme activity CLK 4: 10 µM concentration, ± SEM
Chain of CLK4 (O35493 whole entry): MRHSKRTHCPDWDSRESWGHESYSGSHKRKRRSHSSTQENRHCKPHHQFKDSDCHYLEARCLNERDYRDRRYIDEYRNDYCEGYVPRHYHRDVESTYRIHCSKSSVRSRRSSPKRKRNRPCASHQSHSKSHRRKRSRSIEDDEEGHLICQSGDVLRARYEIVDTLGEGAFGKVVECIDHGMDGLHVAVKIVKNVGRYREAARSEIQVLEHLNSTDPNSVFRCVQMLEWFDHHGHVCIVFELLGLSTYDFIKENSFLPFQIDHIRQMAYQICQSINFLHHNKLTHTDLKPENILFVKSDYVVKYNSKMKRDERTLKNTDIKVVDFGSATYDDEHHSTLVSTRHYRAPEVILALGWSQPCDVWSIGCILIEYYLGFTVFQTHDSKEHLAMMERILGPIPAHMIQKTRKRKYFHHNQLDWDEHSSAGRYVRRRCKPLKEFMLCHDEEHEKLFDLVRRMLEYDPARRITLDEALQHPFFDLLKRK

DYRK2 = target: T3, DYRK2 (Homo sapiens, UniProt Q92630); experiment: radiometric protein kinase assay; type: biochemical; conditions: for IC50: 15 μmol/L ATP, read-out: IC50 DYRK 2; for Residual enzyme activity DYRK 2: 10 µM concentration, ± SEM
T3 sequence (Q92630 1-601): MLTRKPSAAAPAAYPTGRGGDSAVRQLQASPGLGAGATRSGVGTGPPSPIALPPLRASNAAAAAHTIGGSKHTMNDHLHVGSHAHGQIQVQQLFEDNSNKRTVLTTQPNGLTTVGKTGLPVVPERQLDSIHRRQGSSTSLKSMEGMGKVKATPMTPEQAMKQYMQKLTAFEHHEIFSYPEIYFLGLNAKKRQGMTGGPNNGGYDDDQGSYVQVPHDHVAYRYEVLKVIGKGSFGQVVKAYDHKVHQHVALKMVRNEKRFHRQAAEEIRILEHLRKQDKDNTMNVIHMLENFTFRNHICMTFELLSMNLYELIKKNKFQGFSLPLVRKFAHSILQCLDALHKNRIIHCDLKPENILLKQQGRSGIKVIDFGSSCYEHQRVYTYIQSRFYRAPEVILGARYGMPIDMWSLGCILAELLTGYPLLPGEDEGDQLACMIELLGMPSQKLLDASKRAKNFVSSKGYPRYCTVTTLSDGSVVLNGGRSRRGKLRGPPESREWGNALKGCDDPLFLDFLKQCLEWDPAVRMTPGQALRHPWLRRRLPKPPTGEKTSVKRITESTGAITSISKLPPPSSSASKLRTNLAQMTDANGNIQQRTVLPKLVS

CDK1/cyclin B = experiment: radiometric protein kinase assay; type: biochemical, starfish; conditions: for IC50: 15 μmol/L ATP; for Residual enzyme activity CDK1/cyclin B: 10 µM concentration, ± SEM
CLK1 = CLK1 (Mus musculus, UniProt P22518); experiment: radiometric protein kinase assay; conditions: for Residual enzyme activity CLK 1: 10 µM concentration, ± SEM
Chain of CLK1 (P22518 whole entry): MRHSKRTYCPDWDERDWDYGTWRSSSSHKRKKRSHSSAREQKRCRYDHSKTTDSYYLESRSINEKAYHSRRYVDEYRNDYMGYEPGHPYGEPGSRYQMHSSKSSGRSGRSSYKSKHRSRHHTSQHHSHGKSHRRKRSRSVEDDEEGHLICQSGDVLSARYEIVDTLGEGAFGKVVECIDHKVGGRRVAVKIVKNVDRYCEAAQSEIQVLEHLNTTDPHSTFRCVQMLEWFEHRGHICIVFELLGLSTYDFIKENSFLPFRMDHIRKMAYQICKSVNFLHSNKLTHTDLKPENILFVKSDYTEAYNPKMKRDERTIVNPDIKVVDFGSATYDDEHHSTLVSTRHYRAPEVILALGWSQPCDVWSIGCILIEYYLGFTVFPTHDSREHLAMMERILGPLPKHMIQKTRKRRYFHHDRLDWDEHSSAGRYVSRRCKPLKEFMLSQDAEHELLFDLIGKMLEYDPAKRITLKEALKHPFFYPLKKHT
Procedure: Buffer A: 10 mM MgCl2, 1 mM EGTA, 1 mM DTT, 25 mM Tris-HCl pH 7.5, 50 μg heparin/mL. Buffer C: 60 mM β-glycerophosphate, 15 mM p-nitrophenylphosphate, 25 mM MOPS (pH 7.2), 15 mM EGTA, 15 mM MgCl2, 1 mM DTT, 1 mM sodium vanadate, 1 mM phenylphosphate.
Controls were performed with appropriate dilutions of DMSO. The GS-1, CKS, CDK7/9 tide and RS peptide substrates were obtained from Proteogenix (Oberhausbergen, France).
CDK1/cyclin B (M phase starfish oocytes, native), CDK2/cyclin A and CDK5/p25 (human, recombinant) were prepared as previously described [33]. […] ATP (3,000 Ci/mmol; 10 mCi/mL) in a final volume of 30 μL. After 30 min incubation at 30°C, the reaction was stopped by harvesting onto P81 phosphocellulose supernatant (Whatman) using a FilterMate harvester (Packard) and washing in 1% phosphoric acid. Scintillation fluid was added and the radioactivity measured in a Packard counter.
(§1) All data points for construction of dose response curves were recorded in triplicate.

CDK5/p25 = target: T4, CDK5/p25 (Homo sapiens, UniProt Q00535); experiment: radiometric protein kinase assay; type: biochemical; conditions: for IC50: 15 μmol/L ATP; for Residual enzyme activity CDK5/p25: 10 µM concentration, ± SEM
T4 construct: made in house
T4 sequence (Q00535 whole entry): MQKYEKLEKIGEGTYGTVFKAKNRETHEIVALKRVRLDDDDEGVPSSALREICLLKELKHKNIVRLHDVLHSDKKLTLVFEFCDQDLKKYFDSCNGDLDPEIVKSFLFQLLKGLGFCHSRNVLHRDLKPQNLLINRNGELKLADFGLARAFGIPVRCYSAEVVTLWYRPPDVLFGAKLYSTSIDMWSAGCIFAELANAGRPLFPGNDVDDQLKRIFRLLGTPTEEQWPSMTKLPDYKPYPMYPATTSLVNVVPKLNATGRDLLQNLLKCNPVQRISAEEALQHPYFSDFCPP
T4 sequence (Q15078 99-307 partner limits assumed): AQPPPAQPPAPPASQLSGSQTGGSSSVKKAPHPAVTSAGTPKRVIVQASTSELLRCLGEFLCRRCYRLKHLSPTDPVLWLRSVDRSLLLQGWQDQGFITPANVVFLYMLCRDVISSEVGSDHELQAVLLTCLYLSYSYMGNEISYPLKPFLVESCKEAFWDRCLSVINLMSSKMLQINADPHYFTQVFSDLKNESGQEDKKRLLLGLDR

CLK3 = CLK3 (Mus musculus, UniProt O35492); experiment: radiometric protein kinase assay; conditions: for Residual enzyme activity CLK 3: 10 µM concentration, ± SEM
Chain of CLK3 (O35492 whole entry): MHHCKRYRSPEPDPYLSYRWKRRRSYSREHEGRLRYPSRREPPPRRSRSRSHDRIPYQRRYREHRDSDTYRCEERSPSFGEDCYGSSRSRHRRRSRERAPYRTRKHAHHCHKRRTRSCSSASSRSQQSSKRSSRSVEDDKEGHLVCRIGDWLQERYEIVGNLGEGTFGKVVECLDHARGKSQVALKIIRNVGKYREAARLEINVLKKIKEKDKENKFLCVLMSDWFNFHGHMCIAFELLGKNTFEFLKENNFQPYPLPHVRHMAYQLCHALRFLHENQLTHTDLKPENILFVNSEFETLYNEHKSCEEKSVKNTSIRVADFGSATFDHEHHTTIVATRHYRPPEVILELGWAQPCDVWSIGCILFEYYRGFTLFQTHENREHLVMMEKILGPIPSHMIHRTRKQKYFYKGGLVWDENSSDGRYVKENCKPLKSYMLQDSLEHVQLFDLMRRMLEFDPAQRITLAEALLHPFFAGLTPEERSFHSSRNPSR
Procedure: (§2) Buffers. Buffer A: 10 mM MgCl2, 1 mM EGTA, 1 mM DTT, 25 mM Tris-HCl pH 7.5, 50 μg heparin/mL. Buffer C: 60 mM β-glycerophosphate, 15 mM p-nitrophenylphosphate, 25 mM MOPS (pH 7.2), 15 mM EGTA, 15 mM MgCl2, 1 mM DTT, 1 mM sodium vanadate, 1 mM phenylphosphate.
(§3) Kinase activities were assayed in buffer A or C at 30°C at a final ATP concentration of 15 μmol/L. Blank values were subtracted and activities were expressed in percent of the maximal activity, i.e. in the absence of inhibitors. Controls were performed with appropriate dilutions of DMSO.
(§4) Their kinase activity was assayed in buffer A, with 1 mg histone H1/mL, in the presence of 15 μmol/L [γ-33P] ATP (3,000 Ci/mmol; 10 mCi/mL) in a final volume of 30 μL. After 30 min incubation at 30°C, the reaction was stopped by harvesting onto P81 phosphocellulose supernatant (Whatman) using a FilterMate harvester (Packard) and washing in 1% phosphoric acid. Scintillation fluid was added and the radioactivity measured in a Packard counter.
as §1

CDK9/cyclin T = CDK9/cyclin T (Homo sapiens, UniProt P50750); experiment: radiometric protein kinase assay; conditions: for Residual enzyme activity CDK9/cyclin T: 10 µM concentration, ± SEM
Chain of CDK9/cyclin T (P50750 whole entry): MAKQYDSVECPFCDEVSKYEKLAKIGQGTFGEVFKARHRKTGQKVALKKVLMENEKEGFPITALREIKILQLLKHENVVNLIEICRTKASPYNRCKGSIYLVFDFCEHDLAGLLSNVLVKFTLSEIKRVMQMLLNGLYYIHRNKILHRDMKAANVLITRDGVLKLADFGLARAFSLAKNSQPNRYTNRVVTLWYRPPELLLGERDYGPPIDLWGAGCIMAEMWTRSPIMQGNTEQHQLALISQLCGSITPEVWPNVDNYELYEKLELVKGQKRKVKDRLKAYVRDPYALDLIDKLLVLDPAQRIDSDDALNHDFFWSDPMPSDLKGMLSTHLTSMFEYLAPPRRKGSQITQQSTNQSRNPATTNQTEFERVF
Chain of CDK9/cyclin T (O60563 whole entry partner): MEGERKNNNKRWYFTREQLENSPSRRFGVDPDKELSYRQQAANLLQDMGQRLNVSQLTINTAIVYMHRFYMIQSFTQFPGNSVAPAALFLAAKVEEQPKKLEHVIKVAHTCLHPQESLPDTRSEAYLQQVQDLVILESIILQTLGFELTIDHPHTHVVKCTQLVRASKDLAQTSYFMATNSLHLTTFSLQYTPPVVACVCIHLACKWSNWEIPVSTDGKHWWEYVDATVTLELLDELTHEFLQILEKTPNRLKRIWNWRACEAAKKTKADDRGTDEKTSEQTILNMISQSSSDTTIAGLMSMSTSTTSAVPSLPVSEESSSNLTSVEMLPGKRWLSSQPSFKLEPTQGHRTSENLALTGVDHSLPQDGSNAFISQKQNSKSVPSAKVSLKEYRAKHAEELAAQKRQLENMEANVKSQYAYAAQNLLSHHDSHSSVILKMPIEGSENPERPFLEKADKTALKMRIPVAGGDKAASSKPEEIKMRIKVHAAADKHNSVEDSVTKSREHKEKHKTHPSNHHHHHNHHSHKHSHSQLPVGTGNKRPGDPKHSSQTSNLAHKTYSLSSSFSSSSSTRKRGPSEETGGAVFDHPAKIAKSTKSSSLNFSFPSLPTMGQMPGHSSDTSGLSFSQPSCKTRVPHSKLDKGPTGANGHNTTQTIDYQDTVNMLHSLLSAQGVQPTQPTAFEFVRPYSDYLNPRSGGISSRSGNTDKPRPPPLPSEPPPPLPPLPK
Procedure: as §2, §3, §4, §1

CLK2 = CLK2 (Mus musculus, UniProt O35491); experiment: radiometric protein kinase assay; conditions: for Residual enzyme activity CLK 2: 10 µM concentration, ± SEM
Chain of CLK2 (O35491 whole entry): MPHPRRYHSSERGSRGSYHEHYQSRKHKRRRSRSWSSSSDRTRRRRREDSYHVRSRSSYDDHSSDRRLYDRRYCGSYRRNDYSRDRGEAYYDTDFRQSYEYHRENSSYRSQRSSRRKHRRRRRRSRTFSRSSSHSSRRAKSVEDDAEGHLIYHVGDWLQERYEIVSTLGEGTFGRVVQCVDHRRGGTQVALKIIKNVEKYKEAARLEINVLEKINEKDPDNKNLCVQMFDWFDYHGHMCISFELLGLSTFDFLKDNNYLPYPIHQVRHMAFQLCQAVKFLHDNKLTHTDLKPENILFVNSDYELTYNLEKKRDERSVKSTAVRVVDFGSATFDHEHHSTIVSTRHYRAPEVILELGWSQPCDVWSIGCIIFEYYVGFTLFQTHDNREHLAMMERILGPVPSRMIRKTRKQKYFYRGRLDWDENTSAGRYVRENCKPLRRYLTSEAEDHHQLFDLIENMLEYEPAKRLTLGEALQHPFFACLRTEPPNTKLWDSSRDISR
Procedure: as §2, §3, §4, §1

Chain of DYRK1B (Q9Y463 whole entry): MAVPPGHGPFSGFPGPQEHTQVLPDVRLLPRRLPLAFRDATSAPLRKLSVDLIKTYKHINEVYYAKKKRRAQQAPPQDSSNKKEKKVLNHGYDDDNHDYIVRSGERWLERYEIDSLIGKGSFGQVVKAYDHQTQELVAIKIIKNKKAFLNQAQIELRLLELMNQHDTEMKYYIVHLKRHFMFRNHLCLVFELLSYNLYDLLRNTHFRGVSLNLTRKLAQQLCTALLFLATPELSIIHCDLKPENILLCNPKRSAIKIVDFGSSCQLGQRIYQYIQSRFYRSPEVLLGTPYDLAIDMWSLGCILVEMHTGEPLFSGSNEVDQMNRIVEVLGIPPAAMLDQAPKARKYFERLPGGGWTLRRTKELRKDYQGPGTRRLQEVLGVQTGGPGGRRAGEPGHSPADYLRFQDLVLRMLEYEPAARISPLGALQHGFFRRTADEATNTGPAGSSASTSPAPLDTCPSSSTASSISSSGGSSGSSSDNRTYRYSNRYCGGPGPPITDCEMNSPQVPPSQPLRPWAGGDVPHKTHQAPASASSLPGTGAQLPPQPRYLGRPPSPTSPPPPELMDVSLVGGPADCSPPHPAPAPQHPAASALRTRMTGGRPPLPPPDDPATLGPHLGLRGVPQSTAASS

Row | SMILES | melting point [°C] | Residual enzyme activity DYRK 1B (DYRK1B) [%] | Residual enzyme activity CDK2/cyclin A (CDK2/cyclin A) [%] | Residual enzyme activity GSK3 (GSK-3) [%] | Residual enzyme activity DYRK 3 (DYRK3) [%] | Residual enzyme activity DYRK 1A (DYRK1A) [%] | Residual enzyme activity CK1 (CK1δ/ε) [%] | Residual enzyme activity CLK 4 (CLK4) [%] | Residual enzyme activity DYRK 2 (DYRK2) [%] | Residual enzyme activity CDK1/cyclin B (CDK1/cyclin B) [%] | Residual enzyme activity CLK 1 (CLK1) [%] | Residual enzyme activity CDK5/p25 (CDK5/p25) [%] | Residual enzyme activity CLK 3 (CLK3) [%] | Residual enzyme activity CDK9/cyclin T (CDK9/cyclin T) [%] | Residual enzyme activity CLK 2 (CLK2) [%] | also measured
1 | O=C1NCc2ccc3c(-c4ccccc4)c[nH]c3c21 (as salt: sodium) [8a, 3-Phenyl-6,7-dihydropyrrolo[3,4-g]indol-8(1H)-one] | 294 to 295 | – | – | – | – | – | – | – | – | – | – | – | – | – | – | –
2 | O=C1NCc2ccc3c(-c4ccc(Cl)cc4)c[nH]c3c21 (as salt: sodium) [8d, 3-(4-Chlorophenyl)-6,7-dihydropyrrolo[3,4-g]indol-8(1H)-one] | 255 to 257 | – | – | – | – | – | – | – | – | – | – | – | – | – | – | –
3 | O=C1NCc2ccc3c(-c4ccc(Cl)c(Cl)c4)c[nH]c3c21 (as salt: sodium) [8e, 3-(3,4-Dichlorophenyl)-6,7-dihydropyrrolo[3,4-g]indol-8(1H)-one] | 258 to 259 | – | – | – | – | – | – | – | – | – | – | – | – | – | – | –
4 | Cc1cccc(-c2c[nH]c3c4c(ccc23)CNC4=O)c1 (as salt: sodium) [8i, 3-(3-Methylphenyl)-6,7-dihydropyrrolo[3,4-g]indol-8(1H)-one] | 231 to 232 | – | – | – | – | – | – | – | – | – | – | – | – | – | – | –
5 | Cc1[nH]c2c3c(ccc2c1-c1ccccc1)CNC3=O (as salt: sodium) [8k, 2-Methyl-3-phenyl-6,7-dihydropyrrolo[3,4-g]indol-8(1H)-one] | 245 to 247 | – | – | – | – | – | – | – | – | – | – | – | – | – | – | –
6 | CN1Cc2ccc3c(-c4ccccc4)cn(C)c3c2C1=O [15e, 1,7-Dimethyl-3-phenyl-6,7-dihydropyrrolo[3,4-g]indol-8(1H)-one] | – | – | – | – | – | – | – | – | – | – | – | – | – | – | – | IC50 (DYRK1B): > 10 µM; IC50 (CDK2/cyclin A): > 10 µM; IC50 (GSK-3): > 10 µM; IC50 (DYRK3): > 10 µM; IC50 (DYRK1A): > 10 µM; IC50 (CK1δ/ε): > 10 µM; IC50 (CLK4): > 10 µM; IC50 (DYRK2): > 10 µM; IC50 (CDK1/cyclin B): > 10 µM; IC50 (CLK1): > 10 µM; IC50 (CDK5/p25): > 10 µM; IC50 (CLK3): > 10 µM; IC50 (CDK9/cyclin T): > 10 µM; IC50 (CLK2): > 10 µM
7 | O=C1NCc2c(-c3ccccc3)cc3c(-c4ccccc4)c[nH]c3c21 [17a, 3,5-Diphenyl-6,7-dihydropyrrolo[3,4-g]indol-8(1H)-one] | – | – | – | – | – | – | – | – | – | – | – | – | – | – | – | IC50 (DYRK1B): > 10 µM; IC50 (CDK2/cyclin A): > 10 µM; IC50 (GSK-3): > 10 µM; IC50 (DYRK3): > 10 µM; IC50 (DYRK1A): > 10 µM; IC50 (CK1δ/ε): > 10 µM; IC50 (CLK4): 1.3 µM; IC50 (DYRK2): > 10 µM; IC50 (CDK1/cyclin B): > 10 µM; IC50 (CLK1): 8.8 µM; IC50 (CDK5/p25): > 10 µM; IC50 (CLK3): > 10 µM; IC50 (CDK9/cyclin T): > 10 µM; IC50 (CLK2): 7.2 µM
8 | O=C1NCc2c(-c3cccc(F)c3)cc3c(-c4ccccc4)c[nH]c3c21 [17c, 5-(3-Fluorophenyl)-3-phenyl-6,7-dihydropyrrolo[3,4-g]indol-8(1H)-one] | – | – | – | – | – | – | – | – | – | – | – | – | – | – | – | IC50 (DYRK1B): > 10 µM; IC50 (CDK2/cyclin A): > 10 µM; IC50 (GSK-3): > 10 µM; IC50 (DYRK3): > 10 µM; IC50 (DYRK1A): > 10 µM; IC50 (CK1δ/ε): > 10 µM; IC50 (CLK4): 3.2 µM; IC50 (DYRK2): > 10 µM; IC50 (CDK1/cyclin B): > 10 µM; IC50 (CLK1): 7.2 µM; IC50 (CDK5/p25): > 10 µM; IC50 (CLK3): > 10 µM; IC50 (CDK9/cyclin T): > 10 µM; IC50 (CLK2): > 10 µM
9 | CCc1[nH]c2c3c(ccc2c1C)CNC3=O [S18a] | – | 46±8 | 99±8 | 97±3 | 65±9 | 54±1 | 50±6 | 7±2 | 42±12 | 94±13 | 20±2 | 100±9 | 92±12 | 93±5 | 31±4 | –
10 | Cc1[nH]c2c3c(ccc2c1C)CNC3=O [S18b] | – | 77±11 | 103±2 | 135±18 | 89±8 | 82±5 | 75±3 | 48±6 | 61±4 | 93±26 | 92±8 | 111±18 | 104±14 | 104±7 | 63±17 | –
11 | Cc1c(-c2ccccc2)[nH]c2c3c(ccc12)CNC3=O [S18c] | – | 50±7 | 109±8 | 112±2 | 91±17 | 58±7 | 57±5 | 10±0 | 57±25 | 77±26 | 29±4 | 105±11 | 93±9 | 89±6 | 30±1 | –
12 | CCc1c(-c2ccccc2)[nH]c2c3c(ccc12)CNC3=O [S18d] | – | 65±8 | 104±2 | 111±7 | 87±5 | 74±14 | 86±3 | 38±3 | 50±6 | 109±30 | 66±3 | 112±11 | 110±16 | 100±10 | 66±5 | –
13 | Cc1ccc(-c2[nH]c3c4c(ccc3c2C)CNC4=O)cc1 [S18e] | – | 85±7 | 102±9 | 120±31 | 92±9 | 99±16 | 84±7 | 64±9 | 75±11 | 100±20 | 105±12 | 114±11 | 105±10 | 101±3 | 77±6 | –
14 | Cc1[nH]c2c3c(ccc2c1C)C(=O)NC3=O [S19] | – | 39±5 | 108±8 | 51±5 | 57±3 | 41±8 | 65±5 | 21±1 | 20±5 | 81±27 | 52±10 | 94±4 | 91±11 | 90±5 | 33±7 | –
15 | O=C1NCc2ccc3c(-c4ccccc4)c(Br)[nH]c3c21 [compound 16, 2-Bromo-3-phenyl-6,7-dihydropyrrolo[3,4-g]indol-8(1H)-one] | – | – | – | – | – | – | – | – | – | – | – | – | – | – | – | IC50 (DYRK1B): 1.3 µM; IC50 (CDK2/cyclin A): > 10 µM; IC50 (GSK-3): > 10 µM; IC50 (DYRK3): 3.9 µM; IC50 (DYRK1A): 1.9 µM; IC50 (CK1δ/ε): > 10 µM; IC50 (CLK4): 0.029 µM; IC50 (DYRK2): 1.8 µM; IC50 (CDK1/cyclin B): > 10 µM; IC50 (CLK1): 0.11 µM; IC50 (CDK5/p25): > 10 µM; IC50 (CLK3): 2.8 µM; IC50 (CDK9/cyclin T): > 10 µM; IC50 (CLK2): 0.11 µM
